In test [1] the test system is a-syn in iPSC-derived dopaminergic neurons. Put plainly: a-syn fluorescence in iPSC-derived dopaminergic neurons. It counts as cell-based, human. Particulars: A53T a-syn iPSC-derived dopaminergic neurons. On the procedure:
A53T a-syn iCell Dopa neurons (catalog #R1109) and isogenic control iCell Dopa neurons (catalog #R1088) were purchased from Fujifilm Cellular Dynamics (Madison, WI, USA) and cultured as per the manufacturer’s instructions. Briefly, cells were plated in complete maintenance medium provided by the manufacturer on poly-L-ornithine/laminin coated μ plates (ibidi). Cells recovered from thawing for 24 h and then were transduced with AAV-Scramble1.3-RFP or AAV-PDpep1.3-RFP at MOI of 3000 for 48 h at which time media was completely changed. Cells were fixed using 4% PFA at 7 days post-plating.
Confocal images of immunofluorescent staining were acquired with a Zeiss LSM880 confocal microscope equipped with 405, 488, 555, and 639 nm laser lines. All images were taken within the linear range at constant gain and pinhole settings at optimal resolution settings determined by the software. […]
Confocal images of primary cortical neurons, iPSC-derived dopaminergic neurons, and LAMP1 staining within the SN were processed using Imaris software (Oxford instruments). […] Mean pixel intensity per GFP^+ cell (for experiments using GFP-tagged peptides) or RFP^+ cell (for experiments using RFP-tagged peptides) was calculated for a-syn or LAMP1 signal using the software’s surfaces module. […]

The subject of a further test is a-syn-CHMP2B interaction. Put plainly: Proximity ligation assay, endogenous a-syn-CHMP2B in rat cortical neurons. Type of test: cell-based. As for the experimental part:
PLA was performed on fixed primary neurons using Duolink® in situ red starter kit mouse/rabbit (Sigma–Aldrich) according to the manufacturer’s instructions. Fixed neurons were permeabilized with 0.1% Triton-X-100 in PBS for 10 min, washed three times with PBS, and incubated with blocking solution for 30 min at 37 °C in a humidity chamber. Primary antibodies (mouse anti-a-syn (clone 42) (BD Biosciences, catalog #610787, 1:500) and rabbit anti-CHMP2B (Abcam, catalog #ab33174, 1:50)) were diluted using antibody diluent. After blocking, neurons were incubated with primary antibodies at room temperature for 1 h in a humidity chamber. Coverslips were washed with wash buffer A two times for 5 min and then incubated with PLA probe solution (anti-mouse minus and anti-rabbit plus) for 1 h at 37 °C in a humidity chamber. Coverslips were washed with wash buffer A two times for 5 min. For the ligation step, 5× ligation buffer was diluted 1:5 in high purity water and ligase was added to the 1× ligation buffer at 1:40 dilution. After the wash, coverslips were incubated in the diluted ligase for 30 min at 37 °C in a humidity chamber. Post-ligation, coverslips were washed with wash buffer A two times for 5 min. For the amplification step, 5× amplification buffer was diluted 1:5 in high purity water and polymerase was added to the 1× amplification buffer at 1:80 dilution. […]

We go through 1 sequence from paper PMC10115881, “Disrupting the α-synuclein-ESCRT interaction with a peptide inhibitor mitigates neurodegeneration in preclinical models of Parkinson’s disease” (Nature Communications, 2023).

Consider DEEIERQLKALG [PDpep1.3], for which, in test [1], the “Effect on a-syn levels, iPSC neurons” value was “returned levels of a-syn, including oligomeric a-syn, as well as LAMP1 levels to those of isogenic controls”. Also, the “Effect on a-syn-CHMP2B interaction, PLA” value in the test on a-syn-CHMP2B interaction was “reduction of the interaction between endogenous WT a-syn and CHMP2B”.
